In patent US20240197666A1, “DITERPENOID COMPOUNDS THAT ACT ON PROTEIN KINASE C (PKC)” (K-Gen Therapeutics, Inc., priority 2021, published 2024):
Like-named read-outs stand apart in the source and are kept apart here.

Columns and labels:
[1] = tested on: phosphorylation of PKCμ, PKCδ and Erk1/2 in A549 lung cancer cells; assay: Western blot of activation of PKC and downstream target protein in A549 cells; assay type: cell-based; settings: 30 minutes
Method: According to the methods described in patent (WO/2017/083783) A549 lung cancer cells (˜3 million cells) were seeded in 10 cm tissue culture dishes (or ˜1 million cells in 6 cm dish) and grown overnight. Cells were then treated with different drugs at indicated concentrations for 30 minutes. Cell lysate preparation, protein quantitation, SDS-PAGE, and Western blotting procedures are described (WO/2017/083783). β-actin or Vinculin was used as loading controls. Imagequant LAS4000 (GE) was used to scan membranes if secondary antibodies anti-mouse IgG HRP conjugate or anti-rabbit IgG HRP conjugate (dilutions from 1:2000-1:10000) were used. For ProteinSimple Wes system, manufacture's procedure was followed (ProteinSimple 12-230 kDa Wes Separation Module) for sample preparation, loading, running, and data analysis.
Phosphorylation of these sites has been linked to acute activation or catalytic activity of the PKC isoforms and Erk1/2. High level of phosphorylation indicates strong activation.
A subset of the diterpenoid compounds with good binding affinity to novel PKC isoforms and PKCμ was tested at two different concentrations in A549 cells to assess activation of PKCμ, PKCδ, and Erk1/2 by Western blot analysis. In addition to the phospho-specific antibodies described above, an additional phospho-specific antibody P-PKCδ (S299) (Abcam cat #133456) was also used. This antibody has been shown in the literature (Durgan et al., FEBS Lett. 2007, 581(18):3377-81, Novel phosphorylation site markers of protein kinase C delta activation) to be able to detect activation of PKCδ. K-101 (prostratin, 1 μM) was included as reference compounds.

A549 cell line = assay: Proliferation of A549 (CellTiter Glo); assay type: cell-based; settings: Homo sapiens, read-out: IC50 μM (A549 Cell Line)
Summary of the method: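 A549 cells (K-Ras-mutant NSCLC) were seeded at 1,000 cells/well, allowed 24 h to settle, then exposed for 96 h to 3-fold serially diluted compound (final DMSO ≤0.25%). CellTiter Glo luminescence was read, and inhibition was calculated relative to DMSO-only wells. IC50, relative IC50 and % top inhibition came from curve fitting.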

C1b domain of human PKCε = target: T1, C1b domain of human PKCε (Homo sapiens, UniProt Q02156); assay: biochemical; assay type: binding; settings: 3H-PDBu competition
T1 construct: Genes encoding C1b domains of human PKCα, δ, ε, θ, and PKD1 (PKCμ) were synthesized; made in house; host or cells: E. coli BL21(DE3)
T1 sequence (Q02156 242-292 limits assumed): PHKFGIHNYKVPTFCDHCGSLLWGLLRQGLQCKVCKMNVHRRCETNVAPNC
Summary of the method: (§1)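 Affinity was measured by competition with the radiotracer 3H-PDBu for recombinant human GST-C1b fusion proteins expressed in E. coli BL21(DE3). Incubation ran 10 minutes at 37° C with shaking, then 20 minutes on ice, and filter-trapped 3H-PDBu was counted by scintillation. IC50 values were converted to Ki by Cheng-Prusoff using the experimentally determined Kd for each protein preparation.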

C1b domain of human PKCθ = target: T2, C1b domain of human PKCθ (Homo sapiens, UniProt Q04759); assay: biochemical; assay type: binding; settings: 3H-PDBu competition
T2 construct: Genes encoding C1b domains of human PKCα, δ, ε, θ, and PKD1 (PKCμ) were synthesized; made in house; host or cells: E. coli BL21(DE3)
T2 sequence (Q04759 231-281 limits assumed): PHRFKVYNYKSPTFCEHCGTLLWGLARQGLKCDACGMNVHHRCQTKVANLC
Summary of the method: as §1

Panc2.13 (Pancreatic) = assay: Proliferation of Panc2.13; assay type: cell-based
Method: (§2) The diterpenoid compounds were tested in A549, a non-small cell lung cancer cell line harboring a K-Ras activating mutation. Briefly, A549 cells at a density of 1,000 cells/well were seeded in 96-well plates and incubated at 37° C. for 24 hours. A series of different concentrations of compound stocks (500×) were prepared by 3-fold serial dilution in DMSO. These compounds were further diluted in culture media and then added to cells so that the final DMSO concentration was not exceeding 0.25%. After 96 hours of incubation, 50 μL of CellTiter Glo reagent (Promega) was added to each well and luminescence was measured after 10 minutes using EnVision (PerkinElmer). Luminescence from cells treated with DMSO alone was set as Max and % of inhibition was calculated as follows: Inhibition %=(Max-Sample value)/Max×100. Data was analyzed using XL-fit software (ID Business Solutions Ltd.) and IC50, relative IC50, and % of top inhibition was calculated. Some of the compounds in this disclosure were very potent in blocking proliferation of A549 lung cancer cells at low nM range. In addition, potency of inhibiting A549 proliferation correlated well with its binding affinity to PKCs for this series of compounds. In other words, higher affinity binders had stronger inhibitory effects on A549 proliferation. This further support the notion that activation, rather than inhibition, of certain PKC isoforms is required to block proliferation of cancer cells, some of which may harbor K-Ras mutations. This is in sharp contrast to previous literature and common belief that inhibition of PKC is necessary to block cancer cell growth (Kang, 2014, New Journal of Science, 2014:1-36). Data presented here is in agreement with recent findings that many loss-of-function but not gain-of-function mutations of PKC isoforms have been identified in many human cancers (Antal et al., 2015, Cell, 160:489-502).
(§3) The compounds in this disclosure were tested for their potency in blocking proliferation of a few other cancer cells lines, including K-Ras mutant pancreatic cell lines Panc2.13 and KP-4, leukemia cell line HL-60, and lymphoma cell lines Namalwa and Mino. Similar procedures as in Example 67 were followed. Initial cell numbers seeded in 96-well plates were different for different cell lines: 3000 cells/well for Panc2.13; 800-1000 cells/well for KP-4; 5000 cells/well for HL-60; 5000-10000 cells/well for Namalwa and Mino. A ratio of (IC50 of K101)/(IC50 of compound) (data in parenthesis in Table 5) was used to normalize the compound potency from different assay batches to a common comparator K101.

KP-4 (Pancreatic) = assay: Proliferation of KP-4; assay type: cell-based; settings: read-out: IC50 KP-4 (Pancreatic)
Method: as §2, §3

HL-60 (Leukemia) = assay: Proliferation of HL-60; assay type: cell-based
Namalwa (Lymphoma) = assay: Proliferation of Namalwa; assay type: cell-based; settings: for IC50: read-out: IC50 Namalwa (Lymphoma)
Summary of the method: (§4)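 Cells seeded per line (KP-4 800-1000, Panc2.13 3000, Namalwa and Mino 5000-10000 cells/well), 24 h at 37° C, then 96 h with 3-fold serial dilutions of compound, final DMSO ≤0.25%. CellTiter Glo luminescence read; % inhibition vs DMSO-only max, IC50 fitted. Potency also normalized as ratio to comparator K101 across batches.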

Mino (Lymphoma) = assay: Proliferation of Mino; assay type: cell-based; settings: for IC50: Homo sapiens, MINO, read-out: IC50 Mino (Lymphoma)
Summary of the method: as §4

PANC1 cells = assay: Sphere formation assay; assay type: cell-based; settings: Homo sapiens, PANC-1, read-out: concentration exhibiting at least 50% inhibition on the sphere forming efficiency
Method: A group of diterpenoid compounds of the present disclosure were tested to assess their effects on blocking formation of spheres from cancer cell lines such as PANC1, a K-Ras mutant pancreatic cell line. Briefly, PANC1 cells were harvested, re-suspended as single cell suspensions, counted and seeded into Ultra Low Attachment Culture 96-well plate (Corning, Cat #3474) at 100 cells/well in 100 μl of complete media (with 10% FBS) containing 2% Matrigel (Corning, Cat #354234) and DMSO or compounds. Six replicates per condition were seeded. The seeded cells were placed in the 37° C. tissue culture incubator. 10 μl of low serum containing media (with 0.1% FBS) was added to each well every week. Spheres formed after 3-4 weeks were counted. Sphere forming efficiency was expressed as percentage of # of spheres/ # of cells seeded.

[2] = tested on: NFκB-driven transcription in HeLa-NFκB luciferase reporter cell line; assay: NFκB luciferase reporter assay; settings: Homo sapiens, HeLa, 16 h, read-out: NFκB-luc HeLa cells EC50 (μM)
Method: A HeLa-NFκB luciferase reporter cell line (Wuxi Biology) was used to assess a group of PKC activator compounds for their ability to activate NFκB-driven transcription. […] One set of cells was assayed for luciferase activity (Promega, Cat #E1500) and the other set was assayed to determine the number of viable cells (for cell number normalization) using CellTiter-Glo (CTG) kit (Promega, Cat #G7570) according to manufacture's procedures. Normalized data (luciferase value/CTG value) were analyzed using GraphPad Prism5 to calculate EC50 for each compound (see Table 8).
To assess if activation of PKC is required for these compounds to activate NFκB, several PKC inhibitors including broad-spectrum and conventional PKC inhibitors were tested. In the assay described above, PKC inhibitors were added at the same time as the PKC activator compounds.

C1b domain of human PKCδ = target: T3, C1b domain of human PKCδ (Homo sapiens, UniProt Q05655); assay: biochemical; assay type: binding; settings: 3H-PDBu competition
T3 construct: Genes encoding C1b domains of human PKCα, δ, ε, θ, and PKD1 (PKCμ) were synthesized; made in house; host or cells: E. coli BL21(DE3)
T3 sequence (Q05655 230-280 limits assumed): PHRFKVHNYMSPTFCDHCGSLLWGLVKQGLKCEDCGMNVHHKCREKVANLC
Summary of the method: as §1

C1b domain of human PKCα = target: T4, C1b domain of human PKCα (Homo sapiens, UniProt P17252); assay: biochemical; assay type: binding; settings: 3H-PDBu competition
T4 construct: Genes encoding C1b domains of human PKCα, δ, ε, θ, and PKD1 (PKCμ) were synthesized; made in house; host or cells: E. coli BL21(DE3)

[3] = target: T5, C1b domain of human PKD1 (PKCμ) (Homo sapiens, UniProt Q15139); assay: Competitive 3H-PDBu binding assay, C1b domain of PKD1 (PKCμ); settings: 3H-PDBu competition
T5 construct: Genes encoding C1b domains of human PKCα, δ, ε, θ, and PKD1 (PKCμ) were synthesized; made in house; host or cells: E. coli BL21(DE3)
T5 sequence (Q15139 270-320 limits assumed): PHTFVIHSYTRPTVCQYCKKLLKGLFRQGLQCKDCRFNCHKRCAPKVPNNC
Method: Compounds described in this disclosure were tested for binding affinity to C1b domain of PKC isoforms. Compound binding affinity to C1b domain of PKC isoforms was derived from competitive binding assay using radioactive tracer ^3H-PDBu and recombinant GST-C1b or full-length of human PKC proteins based on modified procedures from Methods in Molecular Biology, vol.
Genes encoding C1b domains of human PKCα, δ, ε, θ, and PKD1 (PKCμ) were synthesized and inserted into pGEX-2TK or pGEX-4T1 vectors for expression and production of GST-C1b proteins in E. coli BL21(DE3) via IPTG induction. The target proteins were purified by glutathione sepharose 4B and followed by ion exchange chromatography if needed to achieve purity >70%. Aliquots of the purified proteins were stored at −80 degree for binding assay (storage buffer: 20 mM Tris pH 8.0, 200 mM NaCl, 10% glycerol, 1 mM DTT).
The plate was incubated at 37° C. on a shaker at 300 rpm for 10 minutes and then put on ice for 20 minutes. […] The bottom of the filter plate was sealed and 50 μL of MicroScint-20 (PerkinElmer) cocktail was added to each well. ^3H-PDBu trapped in each well was counted using PerkinElmer MicroBeta2 Reader. Data were analyzed using GraphPad Prism5 with the model “log(inhibitor) vs. response-variable slope” to fit the IC50, and then IC50 was transformed to Ki using Cheng-Prusoff equation: Ki=IC50/(1+added radio ligand/Kd). Kd is the binding affinity of each protein preparation to ^3H-PDBu, determined experimentally.

For `CC1=C[C@H]2[C@@]3(O)[C@H](C)C[C@]4(OC(=O)[C@H](N)Cc5ccccc5)[C@H]([C@@H]3C=C(CO)C[C@]2(O)C1=O)C4(C)C`, the “phosphorylation of PKCμ, PKCδ and Erk1/2” value ([1]; 3 μM) was “induced phosphorylation” and the IC50 (A549 cell line; A549, 96 h) was 1 to 2 µM.
Compound `CC1=C[C@H]2[C@@]3(O)[C@H](C)C[C@]4(OC(=O)[C@@H](N)CCC5CCCCC5)[C@H]([C@@H]3C=C(CO)C[C@]2(O)C1=O)C4(C)C` has a Ki (C1b domain of human PKCε) of 10 to 30 nM, a Ki (C1b domain of human PKCθ) of 10 to 30 nM and an IC50 (A549 cell line; A549, 96 h) of 0.01 to 0.03 µM. For the same compound, the “ratio (IC50 of K101)/(IC50 of compound) Panc2.13” value (Panc2.13 (Pancreatic)) was 20.5, the IC50 (Panc2.13 (Pancreatic); read-out: IC50 Panc2.13 (Pancreatic)) was 30 to 60 nM and the IC50 (KP-4 (Pancreatic)) was 10 to 30 nM. The “ratio (IC50 of K101)/(IC50 of compound) HL-60” value (HL-60 (Leukemia)) was 27.7, the IC50 (HL-60 (Leukemia); Homo sapiens, HL-60, read-out: IC50 HL-60 (Leukemia)) was 10 to 30 nM and the “ratio (IC50 of K101)/(IC50 of compound) Namalwa” value (Namalwa (Lymphoma)) was 7.42. For the same compound, the IC50 (Namalwa (Lymphoma)) was 1 to 10 nM, the “ratio (IC50 of K101)/(IC50 of compound) Mino” value (Mino (Lymphoma)) was 33 and the IC50 (Mino (Lymphoma)) was 1 to 10 nM. The IC50 (PANC1 cells) was at most 150 nM and the EC50 [2] was 0.01 to 0.03 µM.
Work on `CC1=C[C@H]2[C@@]3(O)[C@H](C)C[C@]4(OC(=O)[C@@H](N)C(C)(C)C)[C@H]([C@@H]3C=C(CO)C[C@]2(O)C1=O)C4(C)C` yielded a Ki (C1b domain of human PKCδ) of 10 to 30 nM, a Ki (C1b domain of human PKCε) of 60 to 100 nM and an IC50 (A549 cell line; A549, 96 h) of 0.2 to 0.6 µM. For the same compound, the IC50 (PANC1 cells) was at most 1500 nM.
`CC1=C[C@H]2[C@@]3(O)[C@H](C)C[C@]4(OC(=O)[C@@H](N)CCc5ccc(C(F)(F)F)cc5)[C@H]([C@@H]3C=C(CO)C[C@]2(O)C1=O)C4(C)C` was tested, and the Ki (C1b domain of human PKCα) was 200 to 400 nM, the Ki (C1b domain of human PKCδ) was 10 to 30 nM and the Ki [3] was under 5 nM. The IC50 (A549 cell line; A549, 96 hours, CellTiter Glo) was 0.1 to 0.2 µM.
`CC(=O)O[C@@]12C[C@@H](C)[C@@]3(O)[C@@H](C=C(CO)C[C@]4(O)C(=O)C(C)=C[C@@H]34)[C@@H]1C2(C)C` [Compound K101, prostratin, reference compound] was tested, and the “phosphorylation of PKCμ, PKCδ and Erk1/2” value ([1]; 1 μM) was “induced high levels of phosphorylation”, the IC50 (KP-4 (Pancreatic)) was 200 to 600 nM and the IC50 (Namalwa (Lymphoma); 96 h) was 100 to 600 nM. The IC50 (Mino (Lymphoma); 96 h) was 100 to 600 nM, the IC50 (PANC1 cells; PANC1, spheres counted after 3-4 weeks) was 5500 nM and the EC50 [2] was 0.2 to 0.6 µM.
